The values that follow come from patent publication US20120148637A1, “NANOPARTICULATE OLMESARTAN MEDOXOMIL COMPOSITIONS, PROCESS FOR THE PREPARATION THEREOF AND PHARMACEUTICAL COMPOSITIONS CONTAINING THEM” (priority 2009, published 2012).

For data set [1] the following is noted: rat, in vivo, po, 20 mg/kg. The procedure: The single oral dose of reference Olmesartan Medoxomil was 20 mg/kg, and that of nanostructured Olmesartan Medoxomil formulation was 75.8 mg/kg which corresponds to 20 mg/kg active agent. Both test substances were administered via gastric tube in a dosing volume of 5 ml/kg. The vehicle of the test items was sterile 0.9% NaCl solution supplemented with 0.25% methylcellulose and the suspension was kept homogenous by continuous stirring during treatment in order to minimize the error resulting from the sedimentation.
Male Wistar rats (purchased from Laboratory Animal Center, University of Szeged) were maintained on a standard pellet rodent diet (Bioplan Ltd, Isaszeg, Hungary) under temperature and light-controlled conditions with tap water available ad libitum. The acclimatization period was at least 4 days. Rats were randomized into groups of 6 and each group was used for blood sampling at different time period after Olmesartan Medoxomil treatment. All animals were fasting for 16 hours before oral treatment. […]
An aliquot of 200 μl serum was combined with 20 μl of internal standard working solution and 1.2 ml methanol for protein precipitation. […] Serum Olmesartan concentrations were determined using a standard curve set up from Olmesartan prepared from Olmesartan Medoxomil by enzymatic hydrolysis. […]

For data set [2] the following is noted: cited from earlier work.
For data set [3] the following is noted: cited from earlier work. This is another data set of the same source.
For data set [4] the following is noted: cited from earlier work. This is another data set of the same source.
The conditions of data set [5]: rats; cited from earlier work.

As for `CCCc1nc(C(C)(C)O)c(C(=O)OCc2oc(=O)oc2C)n1Cc1ccc(-c2ccccc2-c2nnn[nH]2)cc1` [Olmesartan Medoxomil, 2,3-dihydroxy-2-butenyl 4-(1-hydroxy-1-methylethyl)-2-propyl-1-[p-(o-1H-tetrazol-5-ylphenyl)benzyl]imidazole-5-carboxylate, cyclic 2,3-carbonate], in data set [1], the “Area under the serum concentration curve between 15 and 360 min (AUC15-360 min)” value worked out at 382.5 µg·min/mL; the tmax is 120 min. In data set [2] (methanol), the solubility in methanol result is on record as “sparingly soluble”. Besides, the solubility in water result in data set [2] (water) is “practically insoluble”.
`CCCc1nc(C(C)(C)O)c(C(=O)O)n1Cc1ccc(-c2ccccc2-c2nnn[nH]2)cc1` [Olmesartan]: in data set [3] (in vivo), the absolute bioavailability result was “approximately 26%”, the “effect of food on bioavailability” value is “Food does not affect the bioavailability”, the renal clearance is reported as 0.6 L/h and the terminal elimination half-life result is given as “approximately 13 hours”. The total plasma clearance in data set [3] (in vivo) is on record as 1.3 L/h. Also, in data set [3] (once-daily dosing), the accumulation in plasma result is “no accumulation in plasma”. In data set [4], the “bound to plasma proteins” value was 99%. Further, in data set [5], the “crossing of the blood-brain barrier” value is reported as “crossed the blood-brain barrier poorly, if at all”; the distribution to milk result is reported as “distributed to milk at low levels”; the “passage across the placental barrier” value is reported as “passed across the placental barrier”.
